Measurements from patent US10732172B1, “Methods, systems, and compositions for determining blood clot formation, and uses thereof” (President and Fellows of Harvard College, priority 2015, dated 2020).
“Also recorded” adds a separate entry of the source.

Experiments:
[1] = test system: platelets and endothelium in LPS-stimulated lung-on-a-chip (PAR-1); assay: Platelet-endothelial dynamics (P-E) in LPS-stimulated lung-on-a-chip with PM2; type: cell-based, human
Description: (§1) Specifically, the analysis includes a method to quantitate platelet function in flow chambers and microfluidic devices that has been primarily limited to analyzing platelet adhesion on bare collagen surfaces. To analyze platelet-endothelial dynamics that will act as a robust readout of physiologically-relevant clotting, an automated imaging program creates an image time-series, K(x, y, t), containing a 10-frame panorama in space. Images are acquired at a frame rate of 2 panoramic images per minute, for a total time of 15 minutes. A non-dimensional stochastic index is derived to quantitate platelet endothelial dynamics (“P-E”), which is the interpercentile range of a coefficient of variance of the image time-series: P-E=range(CV(K(x,y,t) (1) A feature of this analytical readout is that instead of an “ensemble averaging,” the method incorporates the cell-surface interactions at the pixel level and quantitates statistical “dispersion” of interactions.
(§2) After plasma treatment of the microfluidic devices, the two chambers are pre-treated with 10% (3-aminopropyl)-trimethoxysilane (APTMES, e.g., from Sigma) in 100% anhydrous alcohol (e.g., from Sigma) for 10-20 minutes. The chambers are flushed sequentially with 70% ethanol in water and 100% ethanol, and then dried at 60-80° C. for two hours. Then, a mixture of rat tail collagen I (100 μg ml^−1 in PBS, from BD Biosciences) and fibronectin (e.g., 30 μg/ml in PBSm, from BD Biosciences) is introduced in both chambers of the microfluidic device. The microfluidic device is incubated at 37° C. for at least 2 hours before flushing with PBS or EGM-2 cell culture media.
(§3) Some of the microfluidic devices are used with collagen coating alone (without cells). In other devices, HUVECs (e.g. from Lonza) are cultured in Endothelial Growth Medium-2 (EGM-2, from Lonza) and used between certain passages. The cells (5-10×10^6 cells/ml) are introduced into the collagen-coated channels and incubated for 20 minutes at 37° C. to promote cell attachment before a second similar HUVEC suspension is, then, introduced. The microfluidic devices are incubated upside down for an additional 20 minutes to seed the cells on the ceiling and walls of the lower chamber.
The lower chamber is then flushed with EGM-2 and, then, a suspension of primary alveolar epithelial cells (e.g., from ScienCell Research Labs, Carlsbad, Calif.; 5-6×10^6 cells ml^−1) is introduced into the top chamber of the device. After a few hours, the top and bottom chambers are flushed with their respective media, and the microfluidic devices are incubated at 37° C. under 5% CO2 for 3 days (with media being replaced each day once). […]

C57BL/6J mice = assay: Mouse laser injury model of thrombosis and lung histology after LPS; type: in vivo
Experimental: In the above described techniques, C57BL/6J mice (about 8-12 weeks old) are used. For example, the mice are purchased from the Jackson Laboratory (Bar Harbor, Me.). Animal care and experimental procedures are performed in accordance with and under approval of the Beth Israel Deaconess Medical Center (“BIDMC”) Institutional Animal Care and Use Committee.
LPS is isolated from Escherichia coli serotype 0111:B4 (e.g., from Sigma-Aldrich, St Louis, Mo.). The anti-platelet antibody CD42b conjugated to Dylight649 is purchased, for example, from Emfret Analytics (Eibelstadt, Germany).
A laser-induced injury model of thrombosis is optionally used to monitor thrombosis formation in cremaster arterioles and venules in response to intraperitoneal injection of LPS (e.g., 10 mg kg^−1) or vehicle (e.g., physiological saline solution). Intravital microscopy of the cremaster microcirculation is performed, with injury to a cremaster arteriolar (e.g., 30-50 μm diameter) vessel wall being induced with a Micropoint Laser System (e.g., from Photonics Instruments, Chicago, Ill.). The Micropoint Laser System is focused through a microscope objective, parfocal with the focal plane and tuned to 440 nm. Data is captured digitally in a single fluorescence channel at 647/670 nm. Data acquisition is initiated both prior to and following a single laser pulse for each injury. Images are captured using a CCD camera (e.g., from Hamamatsu) at frame rates of 1/0.2 s^−1 and 1/0.5 s^−1, for a total of 240 seconds. The microscope system is controlled and images are analyzed using Slidebook (e.g., from Intelligent Imaging Innovations, Denver, Colo.). Anti-platelet antibodies re infused into the mice prior to vessel wall injury.
Histology Lungs are harvested in 4% paraformaldehyde. Following overnight incubation, lungs re transferred to 70% ethanol. Paraffin-embedded lungs are sectioned and stained with Hematoxylin and eosin […] or Masson's Trichome stain (MTS). This work is done by the histology and microscopy core at BIDMC.

[2] = test system: primary alveolar epithelial cells (AE) and endothelial cells with whole blood; assay: Lung-on-a-chip stimulated with TNF-α or LPS: vascular ICAM-1, P-E, clots, gap junctions; type: cell-based, human
Description: as §1, §2, §3
The lower chamber is then flushed with EGM-2 and, then, a suspension of primary alveolar epithelial cells (e.g., from ScienCell Research Labs, Carlsbad, Calif.; 5-6×10^6 cells ml^−1) is introduced into the top chamber of the device. After a few hours, the top and bottom chambers are flushed with their respective media, and the microfluidic devices are incubated at 37° C. under 5% CO2 for 3 days (with media being replaced each day once). On day 4, the bottom vascular chamber is set on perfusion of EGM-2 media (e.g., 30 μL hr^−1; 0.5% fetal bovine serum) to provide shear to the HUVEC vessel chamber and a continuous supply of fresh media.
On day 6, the epithelial cell media in the top chamber is aspirated to create the air-liquid interface of the alveoli. Hereon, the cell culture continues for another 6-8 days, after which, in some cases, the top chamber is supplemented with 0, 5, or 100 ng ml^−1 TNF-α in PBS (e.g., from Sigma) overnight or LPS (e.g., 100 ng ml^−1 of E. Coli, from Sigma,) for 2 hours to cause cell activation. The LPS is sonicated in ultrasonic bath for about 20-30 minutes before introducing into the microfluidic device. After stimulation, the top chamber is clamped, the bottom chamber is rinsed with culture media, a reservoir cut from a 3 ml slip-tip syringe (e.g., from BD) is inserted on one end of the lower chamber, and a 1/16-inch male luer connector (e.g., from Qosina Corp) is inserted on the other end of the lower chamber.
When analyzing the formation of fibrin, blood samples re added with 15 μg ml^−1 of fluorescently labeled fibrinogen (e.g., Alexa 488 from Invitrogen). […]

CCCC(=O)Nc1cccc(NC(=O)c2ccccc2Br)c1 [PM2, parmodulin 2]
platelet-endothelial dynamics (P-E) ([1]; PM2 30 μM added to blood alone, AE side stimulated with LPS): reduction of P-E | clotting and platelet-endothelial dynamics (P-E) ([1]; PM2 30 μM added to endothelial cell culture medium, AE side stimulated with LPS 100 ng/ml): no significant clotting occurs | P-E and thrombotic activity ([1]; PM2 added to both endothelium and platelets, AE side stimulated with LPS): completely inhibits the P-E and thrombotic activity | overall effect of PM2 in LPS-stimulated lung-on-a-chip ([1]; model of acute lung dysfunction, whole blood perfusion): endothelial cytoprotective effect; also recorded: cytoprotective and anti-thrombotic effect

lipopolysaccharide [LPS]
lung histology (C57BL/6J mice; LPS injection): lung injury and pulmonary thrombosis; also recorded: causes clotting in the lung | increase in P-E in cremaster artery and vein (C57BL/6J mice; laser injury plus LPS): further exacerbated | platelet-endothelial interactions / thrombosis in cremaster artery or vein (C57BL/6J mice; systemic LPS alone (10 mg kg^-1 intraperitoneal)): does not induce any platelet-endothelial interactions; also recorded: does not cause thrombosis in a cremaster artery or vein | platelet-endothelial dynamics (P-E) ([2]; LPS in the absence of AE): near absent | gap junctions ([2]; LPS in the presence of AE): significantly increase | thrombus formation ([2]; LPS stimulation of endothelium alone): does not cause thrombus formation | endothelial inflammation (vascular ICAM-1) ([2]; LPS stimulation over the AE): inflamed | platelet-endothelial dynamics (P-E) ([2]; LPS stimulation over the AE): significantly increases | thrombus formation (platelet aggregates, fibrin) in the lumen ([2]; LPS-stimulated device containing AE): large platelet aggregates are formed along with significant fibrin in the lumen; also recorded: vascular dysfunction and rapid clotting | gap junctions ([2]; blood vessel alone stimulated with LPS): not affected | vascular ICAM-1 ([2]; blood vessel alone stimulated with LPS for 2 hours (no AE)): no significant increase in ICAM-1
